Holding throughout (experiment): inhibition of tumour cell growth, NCI panel, 48 h
Assay [1] concerns A549.
Assay [2] relates to CAKI-1.
Assay [3] has as its system CCRF-CEM.
Assay [4] relates to HCT-116.
Assay [5] has as its system HT-29.
Assay [6] deals with K562.
Assay [7] concerns M19-MEL.
In assay [8] the test system is Malme-3M.
Assay [9] has as its system NCI-H460.
The subject of assay [10] is OVCAR-3.
For assay [11], the system named is OVCAR-4.
Assay [12] has as its system SF-539.
For assay [13], the system named is SK-MEL-2.
In assay [14] the test system is SN12C.
In assay [15] the test system is SW-620.
Assay [16] deals with UACC-257.
Assay [17] concerns BT-549.
Assay [18] concerns HCC 2998.
In assay [19] the test system is HL-60.
Assay [20] has as its system HOP-62.

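Compound exposure: 48 hours, 5 concentrations, 96-well plates. Here, GI50 denotes the concentration required for 50% inhibition of growth.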 The source made the active and inactive calls. No stated cut-off is given here; in the data, active = GI50 up to about 1.1 µM and inactive = higher.

On to `Cc1cc2c(=O)cc(-c3ccc(Cl)c(Cl)c3)oc2c(C(=O)O)c1C`, for which the GI50 in assay [1], in assay [2], in assay [3], in [4], in assay [5] and in assay [6] was > 100 µM (inactive) throughout. The GI50 in [7], in assay [8], in assay [9], in [10], in [11] and in [12] was > 100 µM (inactive) throughout. Moreover, the GI50 in assay [13], in [14], in [15] and in assay [16] was > 100 µM (inactive) in each case.
`COC(=O)C1(C(=O)OC)Cc2ccc(OC)cc2C2=C1C(=O)c1ccccc1C2=O`: the GI50 in assay [1] was 14.9 µM (inactive); in assay [17] it was 19.1 µM (inactive); in assay [2] it was 0.423 µM (active); in assay [3], 2.15 µM (inactive); in [18], 19.5 µM (inactive); in assay [4], 3.24 µM (inactive). For the same compound, the GI50 in assay [19] was 2.24 µM (inactive); in assay [20] it was 7.08 µM (inactive); in [5] it was 14.4 µM (inactive); in assay [6] it was 1.84 µM (inactive); in [8], 10.8 µM (inactive); in assay [9] it was 16.1 µM (inactive). Besides, the GI50 was 0.282 µM (active) in [10]; 1.77 µM (inactive) in [11]; 16.6 µM (inactive) in assay [12]; 5.7 µM (inactive) in assay [13]; 4.42 µM (inactive) in assay [14]; 6.47 µM (inactive) in [15]. Besides, the GI50 in [16] is 2.48 µM (inactive).
For `CO[C@H]1O[C@@H]2CO[C@@H](c3ccccc3)O[C@H]2C[C@]12CCC/C=C\CO2`, the GI50 in assay [1] was 33.6 µM (inactive); in assay [17], 12.6 µM (inactive); in [2], 25.9 µM (inactive); in assay [3] it was 10.4 µM (inactive); in assay [18] it was 18.7 µM (inactive); in assay [4] it was 12.7 µM (inactive). The GI50 is 15.9 µM (inactive) in assay [19]; 16.9 µM (inactive) in [20]; 17.7 µM (inactive) in assay [5]; 13.9 µM (inactive) in assay [6]; 14.1 µM (inactive) in assay [8]; 47.4 µM (inactive) in assay [9]. For the same compound, the GI50 in [10] is 12.7 µM (inactive); in assay [11] it was 21.9 µM (inactive); in assay [12], 14.6 µM (inactive); in [13] it was 15.9 µM (inactive); in [14], 14.8 µM (inactive); in [15] it was 20.6 µM (inactive). The GI50 in assay [16] is 22.2 µM (inactive).
For the compound `c1cncc(C2N3CCCCC3[C@@H]3c4[nH]c5ccccc5c4CCN23)c1` (some centres not stated), the GI50 in assay [1], in assay [2], in [3], in [4], in assay [19] and in [20] was > 100 µM (inactive) in each case. Also, the GI50 in [5], in [6], in assay [7], in assay [9], in assay [10] and in assay [11] was > 100 µM (inactive) throughout. In addition, the GI50 in [12], in assay [13], in assay [14], in assay [15] and in assay [16] was > 100 µM (inactive) each time.
As for `CC(NC(=O)/C(C#N)=C/c1ccc2[nH]ccc2c1)c1ccccc1` (configuration not stated), the GI50 in assay [1] was 24 µM (inactive); in assay [17] it was 11.2 µM (inactive); in [2], 29.3 µM (inactive); in [3], 17.5 µM (inactive); in [18], 19.8 µM (inactive); in assay [4] it was 14.9 µM (inactive). For the same compound, the GI50 in [19] is 18.7 µM (inactive); in assay [20], 18.2 µM (inactive); in assay [5], 17.5 µM (inactive); in assay [6], 23.8 µM (inactive); in assay [8] it was 28.2 µM (inactive); in assay [9] it was 18.4 µM (inactive). The GI50 in assay [10] was 24.9 µM (inactive); in assay [11] it was 20.2 µM (inactive); in assay [12] it was 19.8 µM (inactive); in assay [13], 20.8 µM (inactive); in [14], 18.7 µM (inactive); in assay [15], 18.3 µM (inactive). The GI50 in [16] was 21.3 µM (inactive).
Regarding `CCCOc1ccc(/C=C\c2cc(OC)c(OC)c(OC)c2)cc1`, the GI50 in assay [1] was 40.7 µM (inactive); in assay [2] it was 58.3 µM (inactive); in assay [3] it was > 100 µM (inactive); in assay [4], 40.5 µM (inactive); in assay [19], 18.9 µM (inactive); in assay [20], > 100 µM (inactive). Further, the GI50 in assay [5] is 26.5 µM (inactive); in assay [6] it was 23.8 µM (inactive); in [7], 67.8 µM (inactive); in assay [8], 62.2 µM (inactive); in [9], 68.2 µM (inactive); in assay [10], > 100 µM (inactive). Also, the GI50 is 30.5 µM (inactive) in assay [11]; 74.3 µM (inactive) in assay [12]; 65.3 µM (inactive) in assay [14]; 55.1 µM (inactive) in assay [15]; 54 µM (inactive) in [16].
Consider `Cc1cc(=O)oc2cc(OC(=O)N(C)C)c(Cl)cc12`, for which the GI50 in assay [1], in assay [17], in [2], in assay [3], in assay [18] and in [4] was > 100 µM (inactive) throughout. Also, the GI50 is 54 µM (inactive) in assay [19]; 25.1 µM (inactive) in [20]; > 100 µM (inactive) in assay [5]; > 100 µM (inactive) in [6]; 84.3 µM (inactive) in [8]; > 100 µM (inactive) in assay [9]. Moreover, the GI50 in [10] was > 100 µM (inactive); in assay [11], > 100 µM (inactive); in assay [12], 55.3 µM (inactive); in assay [13] it was 82.6 µM (inactive); in [14], > 100 µM (inactive); in assay [15], > 100 µM (inactive). The GI50 in assay [16] is 80.5 µM (inactive).
Turning to `CC(CO)CCC(O)C(C)(O)C1CCC2(O)C3=CC(=O)C4CC(O)C(O)CC4(C)C3CCC12C` (configuration not stated), the GI50 in assay [1] is > 100 µM (inactive); in assay [17], > 100 µM (inactive); in assay [2], > 100 µM (inactive); in [3], 81.3 µM (inactive); in assay [18], > 100 µM (inactive); in assay [4], > 100 µM (inactive). Further, the GI50 in [19], in [20], in assay [5], in [6], in [8] and in assay [9] was > 100 µM (inactive) each time. The GI50 in assay [10], in assay [11], in [12], in assay [13], in assay [14] and in assay [15] was > 100 µM (inactive) each time. Also, the GI50 in [16] was > 100 µM (inactive).
Regarding `COc1cc(C2c3cc4c(c(O)c3C(=O)C3CCC(=O)N32)OCO4)cc(OC)c1OC` (configuration not stated), the GI50 was 18.2 µM (inactive) in assay [1]; 32.7 µM (inactive) in assay [17]; 47.3 µM (inactive) in assay [2]; 31.3 µM (inactive) in assay [3]; 32 µM (inactive) in assay [18]; 56.4 µM (inactive) in assay [4]. The GI50 in assay [19] was 45 µM (inactive); in assay [20] it was 82.8 µM (inactive); in [5], 42.9 µM (inactive); in assay [6], 34.9 µM (inactive); in assay [8], 39.9 µM (inactive); in assay [9], 52.6 µM (inactive). The GI50 was 68.1 µM (inactive) in [10]; > 100 µM (inactive) in [11]; 46.9 µM (inactive) in assay [12]; 79.8 µM (inactive) in assay [13]; > 100 µM (inactive) in assay [14]; 45.9 µM (inactive) in [15]. For the same compound, the GI50 in assay [16] is > 100 µM (inactive).
Take `COc1c(O)c(O)c2c(c1O)C(=O)c1cc(C)cc(O)c1C2=O`: the GI50 was 45.9 µM (inactive) in assay [1]; 40.4 µM (inactive) in assay [17]; 37.9 µM (inactive) in [2]; 33.3 µM (inactive) in assay [3]; 75.2 µM (inactive) in [18]; 32.8 µM (inactive) in assay [4]. Further, the GI50 in assay [19] was 50 µM (inactive); in [20], 56.5 µM (inactive); in assay [5], 24.4 µM (inactive); in assay [6], 37.4 µM (inactive); in [8], 8.91 µM (inactive); in assay [9], 18.7 µM (inactive). Besides, the GI50 was 26.4 µM (inactive) in [10]; 14.4 µM (inactive) in [11]; > 66.5 µM (inactive) in assay [12]; > 100 µM (inactive) in assay [13]; 50.7 µM (inactive) in assay [14]; 40 µM (inactive) in assay [15]. Moreover, the GI50 in [16] was 48.3 µM (inactive).
As to `O=C(NCCc1ccc(F)cc1)c1cc(/C=C/c2cc(O)ccc2O)ccc1O`, the GI50 is 11.1 µM (inactive) in [1]; 1.44 µM (inactive) in assay [17]; 3.03 µM (inactive) in assay [2]; 1.61 µM (inactive) in assay [3]; 7.23 µM (inactive) in assay [18]; 1.95 µM (inactive) in assay [4]. Further, the GI50 in assay [19] was 2.38 µM (inactive); in assay [20] it was 6.11 µM (inactive); in [5], 14.4 µM (inactive); in assay [6] it was 3.03 µM (inactive); in assay [8], 2.42 µM (inactive); in assay [9], 9.75 µM (inactive). Besides, the GI50 in assay [10] is 2.56 µM (inactive); in [11], 2.67 µM (inactive); in assay [12] it was 2.36 µM (inactive); in assay [13] it was 2.67 µM (inactive); in [14], 5.51 µM (inactive); in [15] it was 7.64 µM (inactive). The GI50 in assay [16] was 2.41 µM (inactive).

For the origin of these results see ChEMBL document CHEMBL1201862, “PubChem BioAssay data set” (2004).
